Experimental data: patent publication US5409933A, “Quinoline derivatives and processes for preparing the same” (priority 1993, dated 1995)
Structures can show the parent of a compound that is named as a salt. Where two headings read alike, the source gives them in different places.

What was measured:
[1] = system: P. mirabilis; assay: Treatment Effect on the Systemic Infection; type: in vivo, NMRI mice; conditions: Proteus mirabilis, in Mus musculus, 240 h
Experimental: (§1) 10 fold of the pathogens which lead to 100% lethality were injected intraperitoneally to male and female NMRI mice weighing 18 to 20 g. Immediately and 4 hours after injection, the dose of test compounds, which was determined by two-fold serial dilution method, was administered orally or subcutaneously to the mice, and on the 10th day, the effect was evaluated in terms of ED50 calculated from the number of survived mice by the probit analysis.

[2] = system: S. aureus 17740; assay: Treatment Effect on the Systemic Infection; type: in vivo, NMRI mice; conditions: 240 h
Experimental: as §1

[3] = system: Enterobacter cloacae 1321E; assay: In Vitro Anti-Bacterial Activity Test (MIC, agar dilution); type: cell-based
Procedure, shortened: (§2)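 Each strain, at 10^7 C.F.U./ml, was spotted onto Muller-Hinton agar carrying serial compound dilutions. Growth after an 18-hour incubation at 37° C. defined the minimum inhibitory concentration.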

[4] = system: Enterobacter cloacae P99; assay: as above; type: cell-based; conditions: Enterobacter cloacae, P99, 18 h
Procedure, shortened: (§3)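 Agar-incorporation MIC: Muller-Hinton medium, 10^7 C.F.U./ml inoculum, 18 h incubation at 37° C., growth checked by eye; ciprofloxacin reference.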

[5] = system: Escherichia coli 078; assay: as above; type: cell-based
Procedure, shortened: as §2

[6] = system: Escherichia coli 1507E; assay: as above; type: cell-based; conditions: Muller-Hinton agar, 37° C.
Procedure, shortened: as §2

[7] = system: Escherichia coli DC0; assay: as above; type: cell-based; conditions: Muller-Hinton agar, 37° C., 18 hours, read-out: MIC
Procedure, shortened: as §2

[8] = system: Escherichia coli DC2; assay: as above; type: cell-based; conditions: Escherichia coli, DC2, 18 h
Procedure, shortened: as §2

[9] = system: Escherichia coli TEM; assay: as above; type: cell-based; conditions: Escherichia coli, 18 h, Muller-Hinton agar, 37° C.
Procedure, shortened: as §3

[10] = system: Klebsiella aerogenes 1522E; assay: as above; type: cell-based; conditions: Klebsiella aerogenes, 1522E, 18 h, Klebsiella aerogenes 1522E; Muller-Hinton agar, 37° C., 18 hours; read-out: MIC
Procedure, shortened: as §2

[11] = system: Klebsiella oxytoca 1082E; assay: as above; type: cell-based; conditions: Klebsiella oxytoca 1082E; Muller-Hinton agar, 37° C., 18 hours; read-out: MIC
Procedure, shortened: as §2

[12] = system: Pseudomonas aeruginosa 1592E; assay: as above; type: cell-based; conditions: Muller-Hinton agar, 37° C., 18 hours, read-out: MIC
Procedure, shortened: as §2

[13] = system: Pseudomonas aeruginosa 1771M; assay: as above; type: cell-based; conditions: Pseudomonas aeruginosa, 1771M, 18 h, Muller-Hinton agar, 37° C.
Procedure, shortened: as §2

[14] = system: Pseudomonas aeruginosa 1771; assay: as above; type: cell-based; conditions: Pseudomonas aeruginosa 1771; Muller-Hinton agar, 37° C., 18 hours; read-out: MIC
Procedure, shortened: as §2

[15] = system: Pseudomonas aeruginosa 9027; assay: as above; type: cell-based; conditions: Muller-Hinton agar, 37° C., 18 hours, read-out: MIC
Procedure, shortened: as §2

[16] = system: Salmonella typhimurium; assay: as above; type: cell-based; conditions: Salmonella enterica; Salmonella typhimurium; Muller-Hinton agar, 37° C., 18 hours; read-out: MIC
Procedure, shortened: as §2

[17] = system: Staphylococcus aureus 285; assay: as above; type: cell-based; conditions: Staphylococcus aureus, 285, 18 h, Staphylococcus aureus 285; Muller-Hinton agar, 37° C., 18 hours; read-out: MIC
Procedure, shortened: as §2

[18] = system: Staphylococcus aureus 503; assay: as above; type: cell-based; conditions: Staphylococcus aureus 503; Muller-Hinton agar, 37° C., 18 hours; read-out: MIC
Procedure, shortened: as §2

[19] = system: Staphylococcus aureus SG511; assay: as above; type: cell-based; conditions: Staphylococcus aureus SG511; Muller-Hinton agar, 37° C., 18 hours; read-out: MIC
Procedure, shortened: as §2

[20] = system: Streptococcus faecium MD8b; assay: as above; type: cell-based; conditions: Enterococcus faecium, Muller-Hinton agar, 37° C., 18 hours, read-out: MIC
Procedure, shortened: as §2

[21] = system: Streptococcus pyogenes 308A; assay: as above; type: cell-based; conditions: Muller-Hinton agar, 37° C., 18 hours, read-out: MIC
Procedure, shortened: as §2

[22] = system: Streptococcus pyogenes 77A; assay: as above; type: cell-based
Procedure, shortened: as §2

[23] = Acute Toxicity Test; conditions: mouse, in vivo, ICR mice, 14th day
Experimental: Test compounds were administered to ICR mice weighing 20 to 25 g. On 14th day, LD50 was calculated from the number of survived mice by the probit analysis.

[24] = Enterobacter cloacae 1321E, Muller-Hinton agar, 37° C., 18 hours, read-out: MIC
[25] = Escherichia coli 078, Muller-Hinton agar, 37° C., 18 hours, read-out: MIC
[26] = Streptococcus pyogenes 77A, Muller-Hinton agar, 37° C., 18 hours, read-out: MIC
[27] = P. mirabilis, oral, immediately and 4 hours after infection, survival on 10th day, read-out: ED50 Oral Administration
[28] = sc, P. mirabilis, subcutaneous, immediately and 4 hours after infection, survival on 10th day, read-out: ED50 Subcutaneous Injection
[29] = Staphylococcus aureus, in Mus musculus, S. aureus 17740, oral, immediately and 4 hours after infection, survival on 10th day, read-out: ED50 Oral Administration
[30] = Staphylococcus aureus, in Mus musculus, sc, S. aureus 17740, subcutaneous, immediately and 4 hours after infection, survival on 10th day, read-out: ED50 Subcutaneous Injection
[31] = ip, read-out: Acute Toxicity LD50, Peritomeo Injection
[32] = oral, read-out: Acute Toxicity LD50, Oral Administration
[33] = Streptococcus pyogenes, 77A, 18 h

Structure (SMILES) | MIC [3, 24] | MIC [4] | MIC [5, 25] | MIC [7] | MIC [8] | MIC [9] | MIC [10] | MIC [11] | MIC [12] | MIC [13] | MIC [14] | MIC [15] | MIC [16] | MIC [17] | MIC [18] | MIC [19] | MIC [20] | MIC [21] | MIC [22, 26] | MIC ([6]; Escherichia coli, 1507E, 18 h) | other results
O=C(O)c1cn(C2CC2)c2cc(N3CCNCC3)c(F)cc2c1=O [Ciprofloxacin, reference compound] |  |  |  |  |  |  |  |  |  |  |  |  |  |  |  |  |  |  |  |  | ED50 ([1]; po, read-out: ED50 Oral Administration): 0.82 mg/kg; ED50 ([1]; sc, read-out: ED50 Subcutaneous Injection): 0.16 mg/kg; ED50 ([2]; Staphylococcus aureus, 17740, in Mus musculus, po, read-out: ED50 Oral Administration): > 200 mg/kg
N[C@H]1CCN(c2c(F)cc3c(=O)c(C(=O)C[N+](=O)[O-])cn(C4CC4)c3c2Cl)C1 [Example 13, 1-cyclopropyl-6-fluoro-8-chloro-7-(3-3S-aminopyrrolidin-1-yl)-3-(2-nitroacetyl)-1,4-dihydro-4-oxoquinoline hydrochloride] | < 0.002 µg/mL | 0.004 µg/mL | < 0.002 µg/mL | 0.049 µg/mL | 0.013 µg/mL | < 0.002 µg/mL | 0.013 µg/mL | < 0.002 µg/mL | 0.195 µg/mL | 0.049 µg/mL | 0.195 µg/mL | 0.195 µg/mL | < 0.002 µg/mL | 0.025 µg/mL | 0.049 µg/mL | 0.025 µg/mL | 0.195 µg/mL | 0.195 µg/mL | 0.195 µg/mL |  | MIC ([6]; 18 hours, read-out: MIC): 0.004 µg/mL; ED50 [1, 27]: 0.21 mg/kg; ED50 [1, 28]: 0.08 mg/kg; ED50 [2, 29]: 128 mg/kg; ED50 [2, 30]: 16.8 mg/kg; LD50 at 336 h [23, 31]: 580 mg/kg; LD50 at 336 h [23, 32]: 3800 mg/kg
CNCC1=CCN(c2c(F)cc3c(=O)c(C(=O)C[N+](=O)[O-])cn(C4CC4)c3c2Cl)C1 [Example 16, 1-cyclopropyl-6-fluoro-8-chloro-7-(3-methylaminomethyl-2,5-dihydropyrrol-1-yl)-3-(2-nitroacetyl)-1,4-dihydro-4-oxoquinoline hydrochloride] |  | 0.007 µg/mL | 0.004 µg/mL | 0.098 µg/mL | 0.013 µg/mL | 0.004 µg/mL | 0.013 µg/mL | 0.007 µg/mL | 0.781 µg/mL | 0.195 µg/mL | 0.391 µg/mL | 0.781 µg/mL | < 0.02 µg/mL | 0.004 µg/mL | < 0.002 µg/mL | 0.004 µg/mL | 0.013 µg/mL | 0.098 µg/mL | 0.025 µg/mL | 0.013 µg/mL | MIC ([3]; Enterobacter cloacae, 1321E, 18 h): 0.007 µg/mL; ED50 [2, 29]: 49.7 mg/kg; ED50 [2, 30]: 97.6 mg/kg; LD50 at 336 h [23, 31]: 605 mg/kg; LD50 at 336 h [23, 32]: 3800 mg/kg
O=C(C[N+](=O)[O-])c1cn(C2CC2)c2c(Cl)c(N3CC4=C(CNC4)C3)c(F)cc2c1=O [Example 34, 1-cyclopropyl-6-fluoro-8-chloro-7-(3,7-diazabicyclo[3.3.0]oct-1,5-en-3-yl)-3-(2-nitroacetyl)-1,4-dihydro-4-oxoquinoline hydrochloride] | 0.049 µg/mL | 0.007 µg/mL | < 0.002 µg/mL | 0.195 µg/mL | 0.098 µg/mL | 0.007 µg/mL | 0.013 µg/mL | < 0.002 µg/mL | 0.391 µg/mL | 0.098 µg/mL | 0.195 µg/mL | 0.391 µg/mL | 0.004 µg/mL | 0.049 µg/mL | 0.098 µg/mL | 0.025 µg/mL | 0.098 µg/mL | 0.391 µg/mL | 0.098 µg/mL | 0.007 µg/mL | ED50 [1, 27]: 0.41 mg/kg; ED50 [1, 28]: 0.16 mg/kg; LD50 at 336 h [23, 31]: 620 mg/kg; LD50 at 336 h [23, 32]: 4000 mg/kg
CN[C@H]1CCN(c2c(F)cc3c(=O)c(C(=O)C[N+](=O)[O-])cn(C4CC4)c3c2OC)C1 [Example 65, 1-cyclopropyl-6-fluoro-8-methoxy-7-(3-3S-methylaminopyrrolidin-1-yl)-3-(2-nitroacetyl)-1,4-dihydro-4-oxoquinoline hydrochloride] | 0.013 µg/mL | 0.013 µg/mL |  | 0.781 µg/mL | 0.195 µg/mL | 0.049 µg/mL | 0.049 µg/mL | 0.049 µg/mL | 1.56 µg/mL | 1.56 µg/mL | 1.56 µg/mL | 1.56 µg/mL | 0.781 µg/mL | 0.049 µg/mL | 0.098 µg/mL | 0.049 µg/mL | 0.781 µg/mL | 0.781 µg/mL |  | 0.195 µg/mL | MIC ([5]; Escherichia coli, 078, 18 h): 0.049 µg/mL; MIC [22, 33]: 0.781 µg/mL
CNC1CCN(c2c(F)cc3c(=O)c(C(=O)C[N+](=O)[O-])cn(C4CC4)c3c2OC)C1 (stereo not shown) [Example 66, 1-cyclopropyl-6-fluoro-8-methoxy-7-(3-methylaminopyrrolidin-1-yl)-3-(2-nitroacetyl)-1,4-dihydro-4-oxoquinoline hydrochloride] | 0.049 µg/mL | 0.195 µg/mL |  | 0.781 µg/mL | 0.195 µg/mL | 0.195 µg/mL | 0.013 µg/mL | 0.098 µg/mL | 1.56 µg/mL | 1.56 µg/mL | 1.56 µg/mL | 1.56 µg/mL | 0.781 µg/mL | 0.391 µg/mL | 0.098 µg/mL | 0.391 µg/mL | 0.781 µg/mL | 1.56 µg/mL |  | 0.391 µg/mL | MIC ([5]; Escherichia coli, 078, 18 h): 0.098 µg/mL; MIC [22, 33]: 0.781 µg/mL
CC1COc2c(N3CCN(C)CC3)c(F)cc3c(=O)c(C(=O)O)cn1c23 (stereo not shown) [Ofloxacin, reference compound] |  |  |  |  |  |  |  |  |  |  |  |  |  |  |  |  |  |  |  |  | ED50 [1, 27]: 1.64 mg/kg; ED50 [1, 28]: 0.33 mg/kg; ED50 [2, 29]: > 200 mg/kg; ED50 [2, 30]: 200 mg/kg
